Reference: ChEMBL document CHEMBL1138482 (J Med Chem, 2009)

Key:
[1] = Antiproliferative activity against chinese hamster D4 cells expressing human folate receptor beta after 96 hrs by celltiter-blue cell viability assay in presence of folic acid; settings: Cricetulus griseus, D4, 96 h
[2] = Antiproliferative activity against chinese hamster MTXRII-OuaR2-4 cells expressing human reduced folate carrier after 96 hrs by celltiter-blue cell viability assay; settings: Cricetulus griseus
[3] = Antiproliferative activity against chinese hamster MTXRII-OuaR2-4 cells expressing human proton-coupled folate transporter after 96 hrs by celltiter-blue cell viability assay; settings: Cricetulus griseus
IGROV-1 [4] = test: Antiproliferative activity against human IGROV1 cells expressing human reduced folate carrier/folate receptor alpha after 96 hrs by celltiter-blue cell viability assay in presence of folic acid; settings: IGROV-1, 96 h
[5] = Antiproliferative activity against chinese hamster MTXRII-OuaR2-4 cells expressing empty pCDNA3.1 after 96 hrs by celltiter-blue cell viability assay; settings: Cricetulus griseus
[6] = biological target: Folate receptor alpha (Homo sapiens) (UniProt P15328); test: Displacement of [3H]folic acid from human folate receptor alpha in chinese hamster RT16 cells assessed as relative binding affinity relative to folic acid; type: cell-based
Folate receptor alpha (Homo sapiens), sequence (P15328 25-234 limits assumed): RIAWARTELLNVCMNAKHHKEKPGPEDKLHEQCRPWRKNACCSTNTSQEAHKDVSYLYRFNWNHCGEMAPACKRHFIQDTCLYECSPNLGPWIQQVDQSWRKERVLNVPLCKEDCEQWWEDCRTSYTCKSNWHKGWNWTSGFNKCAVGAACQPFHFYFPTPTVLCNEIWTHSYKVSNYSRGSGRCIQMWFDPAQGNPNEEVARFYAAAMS

[7] = Antiproliferative activity against chinese hamster RT16 cells expressing human folate receptor alpha after 96 hrs by celltiter-blue cell viability assay in presence of folic acid; settings: Cricetulus griseus, RT16, 96 h
IGROV-1 [8] = test: Antiproliferative activity against human IGROV1 cells expressing human reduced folate carrier/folate receptor alpha after 96 hrs by celltiter-blue cell viability assay; settings: IGROV-1, 96 h
[9] = biological target: Folate receptor beta (Homo sapiens) (UniProt P14207); test: Displacement of [3H]folic acid from human folate receptor beta in chinese hamster D4 cells assessed as relative binding affinity relative to folic acid; type: cell-based
Folate receptor beta (Homo sapiens), sequence (P14207 17-230 limits assumed): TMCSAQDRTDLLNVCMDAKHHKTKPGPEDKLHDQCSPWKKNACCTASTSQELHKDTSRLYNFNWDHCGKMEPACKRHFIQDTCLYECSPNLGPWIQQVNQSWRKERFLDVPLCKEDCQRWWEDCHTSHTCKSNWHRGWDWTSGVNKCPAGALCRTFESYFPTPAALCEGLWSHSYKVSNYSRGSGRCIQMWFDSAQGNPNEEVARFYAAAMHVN

[10] = Antiproliferative activity against chinese hamster PC43-10 cells expressing human reduced folate carrier after 96 hrs by celltiter-blue cell viability assay; settings: Cricetulus griseus, PC43-10, 96 h
KB [11] = test: Antiproliferative activity against human KB cells expressing human reduced folate carrier/folate receptor alpha after 96 hrs by celltiter-blue cell viability assay
[12] = Antiproliferative activity against chinese hamster D4 cells expressing human folate receptor beta after 96 hrs by celltiter-blue cell viability assay; settings: Cricetulus griseus, D4, 96 h
KB [13] = test: Antiproliferative activity against human KB cells expressing human reduced folate carrier/folate receptor alpha after 96 hrs by celltiter-blue cell viability assay in presence of folic acid
[14] = Antiproliferative activity against chinese hamster RT16 cells expressing human folate receptor alpha after 96 hrs by celltiter-blue cell viability assay; settings: Cricetulus griseus, RT16, 96 h
[15] = biological target: T1, Trifunctional purine biosynthetic protein adenosine-3 (Homo sapiens, UniProt P22102); test: Inhibition of GARFTase in human KB cells assessed as inhibition of incorporation of [14C]glycine into [14C]formyl GAR after 30 mins in presence of azaserine
T1 sequence (P22102 whole entry): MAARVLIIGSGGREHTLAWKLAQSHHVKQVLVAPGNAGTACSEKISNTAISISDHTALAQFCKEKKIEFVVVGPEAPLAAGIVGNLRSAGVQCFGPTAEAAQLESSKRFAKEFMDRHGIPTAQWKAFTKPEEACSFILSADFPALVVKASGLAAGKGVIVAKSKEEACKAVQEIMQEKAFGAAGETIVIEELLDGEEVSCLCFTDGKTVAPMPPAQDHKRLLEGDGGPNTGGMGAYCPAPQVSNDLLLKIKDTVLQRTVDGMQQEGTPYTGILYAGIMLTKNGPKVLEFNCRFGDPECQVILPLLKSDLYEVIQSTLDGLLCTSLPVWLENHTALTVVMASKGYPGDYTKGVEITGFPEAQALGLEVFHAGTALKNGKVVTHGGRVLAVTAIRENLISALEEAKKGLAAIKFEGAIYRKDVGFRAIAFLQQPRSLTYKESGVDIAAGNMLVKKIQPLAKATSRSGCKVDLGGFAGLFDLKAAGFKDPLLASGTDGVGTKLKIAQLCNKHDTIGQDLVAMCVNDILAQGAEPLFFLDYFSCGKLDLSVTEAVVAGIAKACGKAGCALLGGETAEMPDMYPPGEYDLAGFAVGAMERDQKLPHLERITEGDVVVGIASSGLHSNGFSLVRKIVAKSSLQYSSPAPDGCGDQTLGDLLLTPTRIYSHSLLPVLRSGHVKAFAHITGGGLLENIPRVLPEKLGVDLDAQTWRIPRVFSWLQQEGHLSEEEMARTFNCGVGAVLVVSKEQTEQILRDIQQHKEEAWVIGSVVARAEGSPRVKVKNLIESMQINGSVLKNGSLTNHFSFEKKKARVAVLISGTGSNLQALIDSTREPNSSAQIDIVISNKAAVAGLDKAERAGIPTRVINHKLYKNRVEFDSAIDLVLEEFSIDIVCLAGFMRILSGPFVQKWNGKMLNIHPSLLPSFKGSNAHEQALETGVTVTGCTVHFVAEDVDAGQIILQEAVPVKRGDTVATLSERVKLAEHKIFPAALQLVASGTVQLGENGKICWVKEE

[16] = biological target: T2, Trifunctional purine biosynthetic protein adenosine-3 (Mus musculus, UniProt Q64737); test: Inhibition of mouse recombinant GARFTase
T2 sequence (Q64737 whole entry): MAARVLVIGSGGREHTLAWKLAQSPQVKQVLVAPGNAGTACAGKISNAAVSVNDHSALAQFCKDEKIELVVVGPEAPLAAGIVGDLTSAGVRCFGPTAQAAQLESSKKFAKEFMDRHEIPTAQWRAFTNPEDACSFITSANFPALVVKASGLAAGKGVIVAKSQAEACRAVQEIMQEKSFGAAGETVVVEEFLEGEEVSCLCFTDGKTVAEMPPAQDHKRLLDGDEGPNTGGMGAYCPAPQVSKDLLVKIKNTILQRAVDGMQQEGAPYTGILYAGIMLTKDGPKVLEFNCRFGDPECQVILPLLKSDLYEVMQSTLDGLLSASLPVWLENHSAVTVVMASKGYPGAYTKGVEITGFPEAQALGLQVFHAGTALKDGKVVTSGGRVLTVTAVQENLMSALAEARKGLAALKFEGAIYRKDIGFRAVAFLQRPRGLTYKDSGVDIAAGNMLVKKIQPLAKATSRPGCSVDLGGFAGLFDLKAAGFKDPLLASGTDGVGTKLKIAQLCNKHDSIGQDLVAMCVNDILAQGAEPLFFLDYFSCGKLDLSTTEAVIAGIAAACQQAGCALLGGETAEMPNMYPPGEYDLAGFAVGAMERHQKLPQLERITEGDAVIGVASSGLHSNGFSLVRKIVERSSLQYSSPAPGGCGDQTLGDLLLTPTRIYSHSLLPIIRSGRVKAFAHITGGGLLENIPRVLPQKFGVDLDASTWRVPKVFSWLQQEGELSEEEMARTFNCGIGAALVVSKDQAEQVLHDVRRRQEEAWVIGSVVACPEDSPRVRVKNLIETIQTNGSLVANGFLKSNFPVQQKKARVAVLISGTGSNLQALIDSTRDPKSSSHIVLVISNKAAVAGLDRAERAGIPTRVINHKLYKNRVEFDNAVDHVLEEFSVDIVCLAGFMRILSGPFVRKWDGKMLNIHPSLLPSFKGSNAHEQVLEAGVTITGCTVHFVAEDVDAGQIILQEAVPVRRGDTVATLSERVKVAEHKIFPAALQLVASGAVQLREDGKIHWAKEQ

Row | SMILES | IC50 [1] | IC50 [2] | IC50 [3] | IC50 (IGROV-1 [4]) | IC50 [5] | relative binding affinity (RBA) [6] | IC50 [7] | IC50 (IGROV-1 [8]) | relative binding affinity (RBA) [9] | IC50 [10] | IC50 (KB [11]) | IC50 [12] | IC50 (KB [13]) | IC50 [14] | IC50 [15] | IC50 [16]
1 | Nc1nc2sc(CCCCCCCc3ccc(C(=O)N[C@@H](CCC(=O)O)C(=O)O)cc3)cc2c(=O)[nH]1 | > 1 µM | > 1 µM | > 1 µM | > 1 µM | > 1 µM | > 0.8 | > 1 µM | > 1 µM | > 0.8 | > 1 µM | > 1 µM | > 1 µM | > 1 µM | > 1 µM |  | 
2 | Nc1nc2sc(CCCCCc3ccc(C(=O)N[C@@H](CCC(=O)O)C(=O)O)cc3)cc2c(=O)[nH]1 | > 1 µM | > 1 µM | > 1 µM | > 1 µM | > 1 µM | > 0.8 | > 1 µM |  | > 0.8 | > 1 µM | 0.132 µM |  | > 1 µM |  | 0.0236 µM | 
3 | Nc1nc2sc(CCCc3ccc(C(=O)N[C@@H](CCC(=O)O)C(=O)O)cc3)cc2c(=O)[nH]1 | > 1 µM | > 1 µM | > 1 µM | > 1 µM | > 1 µM | > 0.8 | > 1 µM |  | > 0.8 | > 1 µM |  | 0.112 µM | > 1 µM |  |  | 8.52 µM
4 | Nc1nc2sc(CCCCCCc3ccc(C(=O)N[C@@H](CCC(=O)O)C(=O)O)cc3)cc2c(=O)[nH]1 | > 1 µM | > 1 µM | > 1 µM | > 1 µM | > 1 µM | > 0.8 | > 1 µM | 0.334 µM | > 0.8 | > 1 µM |  | 0.364 µM | > 1 µM | 0.108 µM | 0.0266 µM | 
5 | Nc1nc2sc(CCc3ccc(C(=O)N[C@@H](CCC(=O)O)C(=O)O)cc3)cc2c(=O)[nH]1 | > 1 µM | > 1 µM | > 1 µM | > 1 µM | > 1 µM | 0.25 | > 1 µM | > 1 µM | < 0.01 | > 1 µM | > 1 µM | > 1 µM | > 1 µM | > 1 µM | 0.0323 µM | > 20 µM
6 | CN(Cc1cnc2nc(N)nc(N)c2n1)c1ccc(C(=O)N[C@@H](CCC(=O)O)C(=O)O)cc1 |  |  |  |  |  | 0.8 |  |  |  |  |  |  |  |  |  | 
7 | Nc1nc2sc(CCCCCCCCc3ccc(C(=O)N[C@@H](CCC(=O)O)C(=O)O)cc3)cc2c(=O)[nH]1 | > 1 µM | > 1 µM | > 1 µM | > 1 µM | > 1 µM | > 0.8 | > 1 µM | > 1 µM | > 0.8 | > 1 µM | > 1 µM | > 1 µM | > 1 µM | > 1 µM |  | 
8 | Nc1nc2sc(CCCCc3ccc(C(=O)N[C@@H](CCC(=O)O)C(=O)O)cc3)cc2c(=O)[nH]1 | > 1 µM | > 1 µM | > 1 µM | > 1 µM | > 1 µM | > 0.8 | > 1 µM |  | > 0.8 | > 1 µM |  |  | > 1 µM |  |  | 
